Source: PMC9635468, “Biological evaluation, docking studies, and in silico ADME prediction of some pyrimidine and pyridine derivatives as potential EGFR^WT and EGFR^T790M inhibitors” (Journal of Enzyme Inhibition and Medicinal Chemistry, 2022)
Values after ≈ are worked out from the molar mass of the structure shown.

Assays:
[1] = test system: T47D; experiment: Cytotoxicity screening, SRB assay, T47D; format: cell-based, human; conditions: Homo sapiens, T47D, 48 h
[2] = test system: MCF7; experiment: Cytotoxicity screening, SRB assay, MCF7; format: cell-based, human; conditions: for MCF7 IC50: 48 h; for IC50: Homo sapiens, MCF7, 48 h
Protocol: (§1) In this study, a panel of cell lines was examined for their chemosensitivity. Different concentrations of the synthesised pyridines and pyrimidine derivatives were used in this study (5, 12.5, 25, and 50 µg/mL) for all the examined cell lines. In this study, breast tumour cell line (MCF7), hepatocellular carcinoma cell line (HEPG2), larynx cell line (HEP2), lung cancer cell line (H460), colon cancer cell line (HCT116 and Caco2), hypopharyngeal cell line (FADU), and normal Vero cell line were applied. The full methodology is described in the Supplementary data (SI 1).
(§2) SI 1: Cytotoxicity screening against human cancer cell lines
(§3) In this study, a panel of cell lines was examined for their chemosensitivity. Different concentrations of the synthesized pyridines and pyrimidines derivatives were used in this study (5, 12.5, 25, and 50 µg/ml) for all the examined cell lines. The most sensitive cell line to the treatment regimen was selected and subjected to further investigations to explore the mechanism of this interaction. Human breast tumor cell line (MCF7), human hepatocellular carcinoma cell line (HEPG2), human larynx cell line (HEP2), human lung cancer cell line (H460), human colon cancer cell line (HCT116 and Caco2), human hypopharyngeal cell line (FaDu), and normal cell line Vero were used in this study. It was obtained from the American Type Culture Collection (ATCC, Minnesota, USA). The tumor cell line was maintained at National Cancer Institute (NCI), Cairo, Egypt.
(§4) The antitumor activities of pyridines and pyrimidines derivatives and all tested cell lines were evaluated by sulphorhodamine-B (SRB) assay 1. Briefly, cells were seeded at a density of 3 × 10^3 cells/well in 96-well microtiter plates. They were left to attach for 24 h before incubation with drugs. Next, cells were treated with different concentrations of 5, 12.5, 25, and 50 µg/ml for MCF7, HEPG2, HEP2, HCT116, Caco2, H460, FaDu, and Vero cells. For each concentration, three wells were used and incubation was continued for 48 h. DMSO was used as a control vehicle (1 % v/v). At the end of incubation, cells were fixed with 20 % trichloroacetic acid and stained with 0.4 % SRB dye. The optical density (O.D.) of each well was measured spectrophotometrically at 570 nm using an ELISA microplate reader (TECAN sunrise™, Germany). The mean survival fraction at each drug concentration was calculated as follows: […]
(§5) O.D. of the treated cells/O.D. of the control cells. The IC50 (concentration that produces 50% of cell growth inhibition) value of each drug was calculated using sigmoidal dose-response curve-fitting models (Graph Pad Prizm software, version 5) 1.

[3] = test system: HEP2; experiment: Cytotoxicity screening, SRB assay, HEP2; format: cell-based, human; conditions: for HEP2 IC50: 48 h; for IC50: Homo sapiens, HEp-2, 48 h
Protocol: as §1, §2, §3, §4, §5

[4] = biological target: EGFR (T790M) (Homo sapiens, UniProt P00533, T790M); experiment: EGFR kinase (T790M) inhibition assay, Kinase-Glo MAX
Protocol: (§6) The reagent, Kinase-Glo MAX, was used[50], and luminescence was detected by applying the microplate reader.
(§7) The assay protocol was carried out by adding 25 μL of the master mixture: (6 μL Kinase assay buffer + 1 μL ATP (500 μM) + 1 μL PTK substrate + 17 μL water) to each well. Thereafter, 5 μL of the inhibitor solution was added to each well labeled as “test inhibitor”. Meanwhile, for the “positive control" and “blank”, 5 μL of the same solution without inhibitor (inhibitor buffer) was added. To the wells designated as "blank", add 20 μL of Kinase assay buffer. The amount of EGFR required for the assay was calculated and the enzyme was diluted to 1 ng/μL with Kinase assay buffer. The reaction was initiated by adding 20 μL of diluted EGFR enzyme to the wells designated as “positive control” and "test inhibitor control". The wells were incubated at 30°C for 40 minutes, then 50 μL of Kinase-Glo Max reagent was added to each well. The plate was incubated at room temperature for 15 minutes and luminescence was measured using the microplate reader.

[5] = test system: HEPG2 cell line; experiment: Annexin V-FITC apoptosis detection by flow cytometry; format: cell-based, human; conditions: HEPG2, 3.8 µg/mL, 48 h; control 16.73
Protocol: Furthermore, both compounds 8 and 14 were evaluated for apoptosis using flow cytometry on the HEPG2 cell line. The % rate of total apoptosis for control, compound 8, and compound 14 were 16.73, 22.44, and 48.36 (%), respectively.
Liver cancer cells (HEPG2) were seeded in RPMI-1640 media at a density of 250 X 10^3 cells/mL. Both cell cycle and apoptosis evaluations were performed at 3.8 µg/mL for both compounds 8 and 14. The detailed method is described in the Supplementary data (SI 3).
Annexin V-FITC apoptosis detection kit (Beckman Coulter, California, USA) was used as the manufacturer’s recommendation by using (Beckman Coulter EPICS XL flow cytometer, California, USA). […]
Cell cycle evaluation was performed at 3.8 µg/mL of both compounds […]. After 48 h, the cells were harvested, stained and DNA content was quantified.
The most promising cytotoxic compounds (8 and 14) were further assessed for their inhibitory potential against both EGFR Wild and EGFRT T790M. […] The amount of EGFR required for the assay was calculated and the enzyme was diluted to 1 ng/μL with Kinase assay buffer. […] The plate was incubated at room temperature for 15 minutes and luminescence was measured using the microplate reader.

[6] = biological target: EGFR (Wild) (Homo sapiens, UniProt P00533); experiment: EGFR kinase (wild) inhibition assay, Kinase-Glo MAX
Protocol: as §6, §7

[7] = test system: FADU; experiment: Cytotoxicity screening, SRB assay, FADU; format: cell-based, human; conditions: 48 h; for IC50: Homo sapiens, FaDu
Protocol: as §1, §2, §3, §4, §5

[8] = test system: HCT116; experiment: Cytotoxicity screening, SRB assay, HCT116; format: cell-based, human; conditions: for HCT116 IC50: 48 h; for IC50: Homo sapiens, HCT-116, 48 h
Protocol: as §1, §2, §3, §4, §5

[9] = test system: HEPG2; experiment: Cytotoxicity screening, SRB assay, HEPG2; format: cell-based, human; conditions: for HEPG2 IC50: 48 h; for IC50: Homo sapiens, HepG2, 48 h
Protocol: as §1, §2, §3, §4, §5

[10] = test system: H460; experiment: Cytotoxicity screening, SRB assay, H460; format: cell-based, human; conditions: for H460 IC50: 48 h; for IC50: Homo sapiens, NCI-H460, 48 h
Protocol: as §1, §2, §3, §4, §5

[11] = test system: HEPG2 cells; experiment: Cell cycle DNA index analysis by flow cytometry; format: cell-based, human; conditions: HEPG2, 3.8 µg/mL, 48 h; for cells in G2/M phase: control 5.57%; for cells in G0/G1: control 92.7%

Chain of EGFR (T790M) (P00533 25-1210 T790M): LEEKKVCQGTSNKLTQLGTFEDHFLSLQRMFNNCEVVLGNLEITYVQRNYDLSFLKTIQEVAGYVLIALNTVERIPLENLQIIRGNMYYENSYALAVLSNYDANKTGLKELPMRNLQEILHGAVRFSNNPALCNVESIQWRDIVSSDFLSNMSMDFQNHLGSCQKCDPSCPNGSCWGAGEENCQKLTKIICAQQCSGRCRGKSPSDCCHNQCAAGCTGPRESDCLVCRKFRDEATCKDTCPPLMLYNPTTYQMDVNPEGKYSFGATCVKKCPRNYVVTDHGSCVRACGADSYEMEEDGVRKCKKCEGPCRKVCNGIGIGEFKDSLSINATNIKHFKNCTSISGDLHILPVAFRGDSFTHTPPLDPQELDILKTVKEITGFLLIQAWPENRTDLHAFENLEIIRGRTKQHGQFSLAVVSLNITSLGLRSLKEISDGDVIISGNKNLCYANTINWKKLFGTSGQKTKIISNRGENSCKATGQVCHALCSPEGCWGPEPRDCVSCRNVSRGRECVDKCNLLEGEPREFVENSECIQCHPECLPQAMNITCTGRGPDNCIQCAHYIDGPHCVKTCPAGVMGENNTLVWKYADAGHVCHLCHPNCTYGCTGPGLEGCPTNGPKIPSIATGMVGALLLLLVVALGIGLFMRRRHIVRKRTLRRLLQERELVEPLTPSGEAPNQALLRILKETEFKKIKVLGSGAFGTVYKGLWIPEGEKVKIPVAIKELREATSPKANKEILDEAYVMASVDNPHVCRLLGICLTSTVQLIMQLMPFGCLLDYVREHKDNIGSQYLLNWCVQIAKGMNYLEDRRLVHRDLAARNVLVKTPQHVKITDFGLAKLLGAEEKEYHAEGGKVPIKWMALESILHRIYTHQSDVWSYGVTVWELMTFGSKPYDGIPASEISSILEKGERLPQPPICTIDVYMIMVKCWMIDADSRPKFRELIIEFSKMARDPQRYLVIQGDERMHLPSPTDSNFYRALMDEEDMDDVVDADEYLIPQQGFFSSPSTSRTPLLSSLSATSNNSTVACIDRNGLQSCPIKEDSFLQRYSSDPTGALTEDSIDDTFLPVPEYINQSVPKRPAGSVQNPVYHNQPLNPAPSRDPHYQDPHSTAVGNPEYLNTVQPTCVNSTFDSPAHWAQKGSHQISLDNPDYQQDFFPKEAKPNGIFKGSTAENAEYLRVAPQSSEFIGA
Chain of EGFR (Wild) (P00533 25-1210): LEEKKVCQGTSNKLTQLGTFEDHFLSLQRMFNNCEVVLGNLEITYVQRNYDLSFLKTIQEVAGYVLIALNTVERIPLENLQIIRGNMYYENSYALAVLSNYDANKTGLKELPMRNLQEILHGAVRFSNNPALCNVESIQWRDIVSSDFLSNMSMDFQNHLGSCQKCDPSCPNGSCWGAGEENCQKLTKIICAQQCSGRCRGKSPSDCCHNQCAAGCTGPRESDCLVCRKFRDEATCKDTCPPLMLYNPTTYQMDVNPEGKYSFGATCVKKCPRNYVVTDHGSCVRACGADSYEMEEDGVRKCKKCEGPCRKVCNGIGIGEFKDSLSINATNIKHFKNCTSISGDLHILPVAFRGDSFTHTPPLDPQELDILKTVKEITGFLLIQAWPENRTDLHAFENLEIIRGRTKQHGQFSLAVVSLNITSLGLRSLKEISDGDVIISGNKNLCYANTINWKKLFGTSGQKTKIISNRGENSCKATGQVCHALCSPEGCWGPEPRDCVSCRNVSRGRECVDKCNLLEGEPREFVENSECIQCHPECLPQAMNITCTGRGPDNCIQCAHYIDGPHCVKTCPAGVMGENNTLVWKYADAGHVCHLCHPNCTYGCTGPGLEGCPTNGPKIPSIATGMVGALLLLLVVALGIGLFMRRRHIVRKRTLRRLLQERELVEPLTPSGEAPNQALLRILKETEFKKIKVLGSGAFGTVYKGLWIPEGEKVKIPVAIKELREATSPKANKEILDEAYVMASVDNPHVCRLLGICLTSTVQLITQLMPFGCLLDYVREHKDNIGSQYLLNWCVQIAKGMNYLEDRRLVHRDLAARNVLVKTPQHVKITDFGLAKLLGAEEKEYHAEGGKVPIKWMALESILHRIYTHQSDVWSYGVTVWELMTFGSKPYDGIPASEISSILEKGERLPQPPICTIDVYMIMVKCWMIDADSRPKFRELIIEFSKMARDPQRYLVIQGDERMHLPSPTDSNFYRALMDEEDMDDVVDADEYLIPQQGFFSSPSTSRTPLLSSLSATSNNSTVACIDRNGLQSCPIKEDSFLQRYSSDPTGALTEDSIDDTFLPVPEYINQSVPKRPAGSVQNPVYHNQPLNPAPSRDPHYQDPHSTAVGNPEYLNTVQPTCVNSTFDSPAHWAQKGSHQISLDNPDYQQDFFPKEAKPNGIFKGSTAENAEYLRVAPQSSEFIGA

IC50 [4] [µM]	IC50 [6] [µM]	Compound	IC50 [1] [mg/L]	MCF7 IC50 [2] [mg/L]	IC50 [2] [mg/L]	HEP2 IC50 [3] [mg/L]	IC50 [3] [mg/L]	% rate of total apoptosis [5] [%]	FADU IC50 [7] [mg/L]	IC50 [7] [mg/L]	HCT116 IC50 [8] [mg/L]	IC50 [8] [mg/L]	HEPG2 IC50 [9] [mg/L]	IC50 [9] [mg/L]	H460 IC50 [10] [mg/L]	IC50 [10] [mg/L]	cells in G2/M phase [11] [%]	cells in G0/G1 [11] [%]
0.027 ± 0.002	0.131 ± 0.008	Oc1n[nH]c2nc(-c3ccco3)cc(-c3cccs3)c12 [Compound 8]	7.5 (≈ 26.5 µM)	4.10	3.8 (≈ 13.4 µM)	7.90	4.4 (≈ 15.5 µM)	22.44	5.60	3.8 (≈ 13.4 µM)	7.20	4 (≈ 14.1 µM)	3.80	4 (≈ 14.1 µM)	11.70	8.5 (≈ 30 µM)	34.4	61.4
0.156 ± 0.009	0.203 ± 0.012	N#Cc1c(-c2cccs2)cc(-c2ccco2)[nH]c1=O [Compound 14]	4.7 (≈ 17.5 µM)	3.70	7 (≈ 26.1 µM)	4.70	8 (≈ 29.8 µM)	48.36	3.90	5.7 (≈ 21.2 µM)	3.90	7.4 (≈ 27.6 µM)	3.80	3.6 (≈ 13.4 µM)	8.00	12.5 (≈ 46.6 µM)	25.9	69.8
